With `CC(=O)Nc1ccc(O)c(C(=O)CCC(=O)O)c1` the melting point was 205 to 206 °C.
In the case of `CC1CCC(=O)N1c1cc(-c2ccnc(Nc3cccc(Cl)c3)n2)ccn1` (centres undefined), the melting point is reported as 162 to 164 °C.
Work on `CCOC(=O)c1cn(C)c2nc3cc(N4CCNC(Cc5ccccc5)C4)c(F)cc3cc2c1=O` (racemic) yielded a melting point of 190 °C.
With `COc1ccc(CCN2C=CC=C3C2=Nc2cc(OC)ccc2S(=O)(=O)N3C)cc1` the melting point was 65 to 68 °C.
For `NCC1Cc2cc(-c3ccccc3)cc(-c3ccccc3Cl)c2O1` (centres undefined), the melting point was > 250 °C.
For `O=C(O)[C@@H]1CN(CCn2c(=O)ccc3c(F)cc(F)cc32)CC[C@H]1NCc1cc2c(cn1)OCCO2`, the melting point was > 190 °C.
`O=C(CNc1ccccc1)Nc1cc(Cl)ccc1C(=O)O` gave a melting point of 229 to 230 °C.
`CSN(C)C(=O)Nc1ccc(Cl)c(Cl)c1` showed a melting point of 93 °C.
Work on `c1ccc2c(c1)C1(CO1)c1ccccc1C21CO1` (centres undefined) yielded a melting point of 119 to 121 °C.
`COC(=O)C1=C(CCc2ccccc2OC)NC(CC(=O)N2CCN(CCCN(C)C)CC2)=C(C(=O)OC)C1c1c(Cl)cccc1Cl` (centres undefined) gave a melting point of 156 to 158 °C.
For `Cc1cn2cc(Cl)cc(Cl)c2n1`, the melting point was 156 to 158 °C.
For `CCc1cccc2nc(N[C@@H](CC(C)C)C(=O)OC)oc(=O)c12`, the melting point was 74 to 76 °C.
`CCC(=O)Oc1ccc(C(=O)CC)cc1F` gave a melting point of 104 to 106 °C.
Work on `COc1ccc(C2(O)CCNCC2)cc1` yielded a melting point of 120 to 122 °C.
For `COc1ccc2c(n1)c(CCNC(=O)c1ccco1)c1n2CCCc2ccccc2-1`, the melting point was 70 to 71 °C.
With `COc1ccc(NC(=O)c2ccc(N)cc2NC(=O)c2ccc(C(C)(C)C)cc2)cc1` the melting point was 137 to 140 °C.
For `CC(C)(O)c1cccc(S(N)(=O)=O)c1`, the melting point was 107 to 108 °C.
With `COC(=O)CCCCCNC(=O)/C=C/C=C/c1ccccc1[N+](=O)[O-]` the melting point was 115 to 117 °C.
For `O=C(O)c1cccc(-c2ccc3[nH]cc(-c4ccc(Cl)cc4Cl)c3c2)c1`, the melting point was 303 to 304 °C.
With `Cc1cc(Cl)ccc1N1C(=O)c2ccc(Br)cc2C1=O` the melting point was 207 to 210 °C.
With `CC(C)c1cccc(C(C)C)c1N1C(=O)c2ccc3c4cccc5c(C#CCCCCO)ccc(c6ccc(c2c36)C1=O)c54` the melting point was > 300 °C.
Work on `C[C@H]1C(=O)C2(CC2)C(=O)N1c1ccc(C#N)c(Cl)c1` yielded a melting point of 169 to 172 °C.
`COCO[C@@H]1[C@H]2OC(C)(C)O[C@H]2[C@H](O[C@H]2C[C@H]3OC(C)(C)OC[C@]34C3C(CC[C@]4(O)C2)[C@@]2(O)CC[C@H](C#N)[C@@]2(C)C[C@H]3OCOC)O[C@H]1C` (some centres undefined) showed a melting point of 97 to 99 °C.
With `COc1nc(C)cnc1NS(=O)(=O)c1cccnc1-c1ccc(C(C)C)cc1` the melting point was 74 to 75 °C.
In the case of `C=CCNC(=S)n1nc(Oc2ncc(C(F)(F)F)cc2Cl)cc1C`, the melting point is reported as 46 to 48 °C.
With `Nc1ccnc(-c2nc(=O)c3ccccc3s2)c1` the melting point was 208 °C.
In the case of `Cc1cc(C)c2c(c1)N[C@@H](C(=O)O)[C@@H](C)C2=O` (relative stereo), the melting point is reported as 156 to 157 °C.
Molecule `CC(=O)Oc1ccc(C(=O)c2ccc(OC(C)=O)cc2)cc1` has a melting point of 120 to 122 °C.
For `CCC1(COCc2ccccc2Cl)CCC(C)(C(N)=S)O1` (centres undefined), the melting point was 78 to 80 °C.
With `CC1(C)CC(C)(c2ccc(Oc3ccc(N)cc3)cc2)c2cc(Oc3ccc(N)cc3)ccc21` (centres undefined) the melting point was 135 to 136 °C.
In the case of `N#CC(C#N)c1cccc(Br)c1`, the melting point is reported as 97 to 99 °C.
In the case of `COc1c(Cl)c(Cl)c2c(-c3ccccc3F)noc2c1Cl`, the melting point is reported as 120 to 140 °C.
In the case of `COc1ccccc1C(C)(O)c1ccco1` (centres undefined), the melting point is reported as 64 to 66 °C.
`CC1=C(c2ccc(OCC(=O)O)c(Cl)c2Cl)CCCC1=O` gave a melting point of 143 to 145 °C.
`CCOC(=O)c1cnc2cc(Cl)ccc2c1N=[N+]=[N-]` showed a melting point of 94.5 °C.
For `CCCCCCCCCC(O)CNCCCCCCNCC(O)CCCCCCCCC` (centres undefined), the melting point was 123 to 129 °C.
With `ClC(Cl)=CCOc1cc(Cl)c(OCC=Cc2ccccc2)c(Cl)c1` the melting point was 51.3 °C.
`OCc1cnoc1-c1ccc(-c2ccccc2)cc1` gave a melting point of 108 to 110 °C.
For `Cc1nc2c(OCc3c(Cl)ccc(S(=O)(=O)N4CCC[C@H]4C(=O)NCCCNC(=O)c4ccc(C=NN)cc4)c3Cl)cccn2c1Br`, the melting point was 170 °C.
`COc1ccc(Cc2cnc(N)nc2N)c(OC)c1O` showed a melting point of 246 to 248 °C.
For `N#Cc1ccc(-c2ccc(C(=O)NCCCCN3CCC(c4ccc5ccccc5c4O)CC3)cc2)cc1`, the melting point was 135 to 140 °C.
For `O=[N+]([O-])c1ccc(-c2noc(-c3ccccn3)n2)cc1`, the melting point was 202 to 203 °C.
`CC(=O)N(C)Cc1ccc2c(c1)C(Cc1ccnc(F)c1)(Cc1ccnc(F)c1)c1ccccc1-2` gave a melting point of 136 to 137 °C.
`CC(C)(Cc1ccccc1)C(=O)C(Cc1ccccc1)n1cncn1` (centres undefined) showed a melting point of 45 to 50 °C.
`CC(C)(C)c1ccc(-c2nnc(-c3ccc(C(=O)O)cc3)o2)cc1` showed a melting point of 284 to 286 °C.
With `O=C1c2ccccc2C(=O)N1C/C=C(\F)COc1ccc(Cl)cc1Cl` the melting point was 115 to 116 °C.
Work on `NC(=O)c1ncc(Cl)cc1F` yielded a melting point of 162 to 164 °C.
With `CS(=O)(=O)N1CCN([C@@H](CNS(=O)(=O)c2ccc(OCc3cccc4ccccc34)cc2)C(=O)NO)CC1` the melting point was 148 °C.
Molecule `CCOC(=O)Cc1ccc(-n2cc(F)cn2)cc1` has a melting point of 83.5 to 84.5 °C.
In the case of `COC(=O)CCCc1cc2cc(Cl)ccc2n1S(=O)(=O)c1ccc(N)c([N+](=O)[O-])c1`, the melting point is reported as 157 °C.
`CN1C(=O)CC[C@]2(C)c3ccc(-c4ccc(F)c(Cl)c4)cc3CC[C@@H]12` showed a melting point of 114 to 116 °C.
Molecule `CC(=O)Nc1cc(C(F)(F)F)ccc1-c1cc(Oc2ccc3cccnc3c2)ncn1` has a melting point of 137 to 138 °C.
With `Cc1sc(C(=O)NCc2ccc3c(c2)OCO3)cc1[N+](=O)[O-]` the melting point was 181 to 183 °C.
Molecule `Cc1c(-c2cn(C)c3c(-c4ccccc4)cccc23)nc2ccc(F)cc2c1C(=O)O` has a melting point of 107 to 108 °C.
Molecule `CCN(CC)S(=O)(=O)c1ccc(Oc2ccc([N+](=O)[O-])cc2C#N)cc1` has a melting point of 163 to 164 °C.
Work on `Nc1ccc(OCc2ccccc2)c(Cl)c1` yielded a melting point of 54 °C.
Molecule `CCC(C=O)(CC)SN(C)C(=O)ON=C1SC(C)(C)C(=O)N1C` has a melting point of 105 to 106 °C.
`CCOC(=O)Cc1ccc2c(c1)C(=O)c1cc(Cl)ccc1CS2` gave a melting point of 68 to 71 °C.
Molecule `CCN(CC)c1ccc(-c2cc(-c3ccc(C(=O)O)cc3)ccc2CCCNC(C)C)cc1C(C)(C)C` has a melting point of 253 °C.
For `CNC(=O)N1N=C(c2ccc([N+](=O)[O-])cc2)c2cc(Br)ccc2CC1C` (centres undefined), the melting point was 197 to 200 °C.
`CC(C#N)=C1CCN(c2ccc(N3C[C@H](CNC(=O)C(Cl)Cl)OC3=O)cc2F)CC1` gave a melting point of 202 to 204 °C.
For `CCOC(=O)C1=C(C)NC(c2cscn2)=NC1c1ccccc1F` (centres undefined), the melting point was 126 to 128 °C.
In the case of `CC(=O)N1CCC(c2nn(-c3ccccc3)c3cc(Cl)ccc23)CC1`, the melting point is reported as 130 to 132 °C.
Work on `CCCCCCCCCCN=C=S` yielded a melting point of 71 to 72 °C.
With `CCCCn1nc(CCc2cccs2)nc1Cc1ccc(-c2ccccc2-c2nnn[nH]2)nc1` the melting point was 116 to 118 °C.
For `Cc1nc(-c2ccc(Cl)cc2)sc1C(=O)N[C@H](C)[C@](O)(Cn1cncn1)c1ccc(F)cc1F`, the melting point was 159 to 160 °C.
With `O=S(=O)(COc1ccc(Cl)cc1)c1ccc(Cl)cc1` the melting point was 114 °C.
Work on `CCCCCC(=O)NCc1ccc(C(=O)O)cc1` yielded a melting point of 178 to 179 °C.
Molecule `Cn1ncc(N2CCNCC2)c(Cl)c1=O` has a melting point of 83 to 87 °C.
With `Fc1ccc2[nH]cc(C3=CCN(CC4COc5ccc6ncncc6c5O4)CC3)c2c1` (centres undefined) the melting point was 233 to 235 °C.
`O=C(O)CC1(C(=O)O)CCOc2ccc(C(=O)O)cc21` (centres undefined) gave a melting point of 198 to 200 °C.
In the case of `Cc1ccc2[nH]c(CO)cc2c1C`, the melting point is reported as 159 °C.
In the case of `OC(Cn1cncn1)(CC(Cl)(Cl)Cl)c1ccc(F)cc1` (centres undefined), the melting point is reported as 127 °C.
Work on `CC(=O)OC1OCCC[C@@H]1NC(=O)[C@H](CC(C)C)NC(=O)OCc1ccccc1` (some centres undefined) yielded a melting point of 142 to 143 °C.
With `COC(=O)c1ccc2occ(-c3ccc(S(C)=O)cc3)c2c1` (centres undefined) the melting point was 145 to 146 °C.
`CN1C(=O)N=NC1CSc1ccccc1OCCc1coc(-c2ccccc2)n1` (centres undefined) showed a melting point of 130 to 132 °C.
With `CNC(=O)n1c(N=Cc2ccc([N+](=O)[O-])o2)nc2ccccc21` the melting point was 170 to 171 °C.
`CC1=C(c2ccc(O)cc2)CCC(=O)N1` gave a melting point of 197 to 200 °C.
In the case of `COc1c(N2CC(C)C(N)C(C)(C)C2)c(F)c(N)c2c(=O)c(C(=O)O)cn(C3CC3)c12` (centres undefined), the melting point is reported as 248 to 252 °C.
Work on `O=C(CCl)Nc1ccc(Cl)cc1C(=O)c1ccccc1` yielded a melting point of 119 to 120 °C.
Molecule `CC(=O)Nc1cc2c(cc1[N+](=O)[O-])[C@@H](N1CCCC1=O)[C@H](O)C(C)(C)O2` (relative stereo) has a melting point of 266 to 268 °C.
Molecule `CC(C)(C)OC(=O)c1ccc(C(=O)O)cc1` has a melting point of 100 to 102 °C.
Molecule `CC1(c2cc(NC(=O)Nc3ccc(OCCN4CCOCC4)c4ccccc34)n(-c3ccccc3)n2)CCCCC1` has a melting point of 147 to 149 °C.
With `CC(C)(S)C(=O)N[C@@H](CS)C(=O)O` the melting point was 139 to 140 °C.
Work on `NC(=O)C(F)(F)Cc1c[nH]c([N+](=O)[O-])n1` yielded a melting point of 150 to 152 °C.
`CC1(C(O)(C=Cc2ccc(Cl)cc2)Cn2cncn2)CC1(F)F` (centres undefined) showed a melting point of 131 °C.
In the case of `COc1ccc2c(C)nc(=O)[nH]c2c1`, the melting point is reported as 251 to 254 °C.
`CC1(C)CCC(C)(C)c2cc(C(=O)COc3ccc(C(=O)OCc4ccccc4)c(O)c3)ccc21` showed a melting point of 103 to 104 °C.
For `CC(=Cc1ccccc1)c1ccc2c(c1)S(=O)(=O)CCC2(C)C`, the melting point was 148 to 150 °C.
Molecule `Cn1c(Cl)c(Cl)c2cnc(NC(=O)c3ccc([C@](C)(O)CO)cc3)cc21` has a melting point of 205 to 208 °C.
`CS(=O)(=O)CC(=O)c1ccc(Cl)cc1` gave a melting point of 132 to 137 °C.
`COc1ccc2sc3ccccc3c2c1` gave a melting point of 54 to 55 °C.
For `CN1CCC(c2c[nH]c3ccc(CCS(N)(=O)=O)cc23)CC1`, the melting point was > 95 °C.
Molecule `CC(Cc1c[nH]c2ccccc12)(NC(=O)OC12CC3CC(CC(C3)C1)C2)C(=O)O` (racemic) has a melting point of 206 to 218 °C.
For `CN(NC(=O)OC(C)(C)C)C(=O)C(C)(C)ON=C(C(=O)O)c1csc(N)n1`, the melting point was 145 °C.
`CCCc1ccc(OCCN(C(=O)n2cccn2)c2ncnc3ccccc23)c(C)c1` showed a melting point of 114 to 115 °C.
Molecule `CS(=O)(=O)c1cccc(C(=O)Nc2cc(C(=O)NCc3ccccc3)ccn2)c1` has a melting point of 170 to 171 °C.
`CC1(C)Cc2c(sc(N)c2C(N)=O)C(C)(C)C1` showed a melting point of 140 to 145 °C.
Molecule `Cc1ccc(-n2nc(C(F)(F)F)cc2-c2ccc(S(C)(=O)=O)cc2)cc1Cl` has a melting point of 136 to 138 °C.

Reference: a melting point compilation (Tetko et al.; mined from patent text by program, amines drawn as free bases though some values may be those of a salt)
